In patent US4115541A (priority 1975, dated 1978):
Where two headings read alike, the source gives them in different places.

How the values were obtained:
[1] = rabbits, 2 Hrs.
[2] = Localization in callous of three week-old tibial fractures in rabbits (Example 2); format: in vivo, albino rabbit; conditions: rabbits i.v.
Protocol: Adult New Zealand albino rabbits having an average weight of 3.8 kg were utilized. Strontium-85 was employed as a standard for comparison. […] Each dosage is contained in a volume of 1 ml.
The animals were sacrificed serially from 1 to 24 hours after injection and the activities in major organs were determined by counting multiple samples from each organ in a scintillation well counter (the technetium-99m counts were corrected for the Compton contributions from the strontium-85 activity in the technetium-99m energy window). Multiple samples were counted from the tibia, femur, spine and pelvic bones; the total activity in the skeleton was estimated by assuming the whole skeleton consisted of equal proportions by weight of tibia, spine, femur and pelvis and that the skeletal mass was 10% of the body weight. […] The whole liver and both kidneys were weighed and multiple samples from each were counted to measure the total activity in each organ.
In another series of experiments carried out as described above, localization of technetium from its tin-phosphonate complex was determined in the callous of three week-old fractures of tibia in albino rabbits, again in comparison with strontium-85. Comparative radioassay of technetium-99m administered as the pertechnetate was measured in the callous of tibial fractures in rabbits at one and four hours after administration.

[3] = for Blood, % dose/1% body weight / Bone(Avg), % dose/1% body weight / Femur, % dose/1% body weight / Kidneys, % Dose in Whole Organ / Kidneys, % dose/1% body weight / Liver, % Dose in Whole Organ / Liver, % dose/1% body weight / Marrow, % Dose in Whole Organ / Marrow, % dose/1% body weight / Muscle, % dose/1% body weight / One femur, % dose in whole organ / Pelvis, % dose/1% body weight / Spine, % dose/1% body weight / Tibia, % dose/1% body weight / Blood, % Dose in Whole Organ: rabbits i.v., ~1 mg/kg EHDP

Substance: tin-1-hydroxy-ethane-1,1-diphosphonate [^99m Tc-EHDP]
- Blood, % Dose in Whole Organ ([1]; EHDP 0.01 mg/kg): 0.99 % Dose
- Blood, % Dose/1%-body weight ([1]; EHDP 0.01 mg/kg): 0.142 % Dose/1%-body weight
- Femur, % Dose/1%-body weight ([1]; EHDP 0.01 mg/kg): 7.49 % Dose/1%-body weight
- Kidney, % Dose/1%-body weight ([1]; EHDP 0.01 mg/kg): 1.55 % Dose/1%-body weight
- Kidneys, % Dose in Whole Organ ([1]; EHDP 0.01 mg/kg): 0.81 % Dose
- Liver, % Dose in Whole Organ ([1]; EHDP 0.01 mg/kg): 0.53 % Dose
- Liver, % Dose/1%-body weight ([1]; EHDP 0.01 mg/kg): 0.154 % Dose/1%-body weight
- Marrow, % Dose in Whole Organ ([1]; EHDP 0.01 mg/kg): 0.34 % Dose
- Marrow, % Dose/1%-body weight ([1]; EHDP 0.01 mg/kg): 0.152 % Dose/1%-body weight
- Muscle, % Dose in Whole Organ ([1]; EHDP 0.01 mg/kg): 0.78 % Dose
- One femur, % dose in whole organ ([1]; EHDP 0.01 mg/kg): 2.20 % Dose
- Tibia, % Dose/1%-body weight ([1]; EHDP 0.01 mg/kg): 8.22 % Dose/1%-body weight
- Blood, % Dose/1%-body weight ([1]; EHDP 0.05 mg/kg): 0.193 % Dose/1%-body weight
- Femur, % Dose/1%-body weight ([1]; EHDP 0.05 mg/kg): 8.38 % Dose/1%-body weight
- Kidney, % Dose/1%-body weight ([1]; EHDP 0.05 mg/kg): 3.83 % Dose/1%-body weight
- Kidneys, % Dose in Whole Organ ([1]; EHDP 0.05 mg/kg): 2.9 % Dose
- Liver, % Dose/1%-body weight ([1]; EHDP 0.05 mg/kg): 0.432 % Dose/1%-body weight
- Marrow, % Dose in Whole Organ ([1]; EHDP 0.05 mg/kg): 0.78 % Dose
- Marrow, % Dose/1%-body weight ([1]; EHDP 0.05 mg/kg): 0.353 % Dose/1%-body weight
- Tibia, % Dose/1%-body weight ([1]; EHDP 0.05 mg/kg): 8.68 % Dose/1%-body weight
- Blood, % Dose/1%-body weight ([1]; EHDP 0.1 mg/kg): 0.146 % Dose/1%-body weight
- Femur, % Dose/1%-body weight ([1]; EHDP 0.1 mg/kg): 8.97 % Dose/1%-body weight
- Kidney, % Dose/1%-body weight ([1]; EHDP 0.1 mg/kg): 1.09 % Dose/1%-body weight
- Kidneys, % Dose in Whole Organ ([1]; EHDP 0.1 mg/kg): 0.63 % Dose
- Liver, % Dose in Whole Organ ([1]; EHDP 0.1 mg/kg): 0.19 % Dose
- Liver, % Dose/1%-body weight ([1]; EHDP 0.1 mg/kg): 0.068 % Dose/1%-body weight
- Marrow, % Dose in Whole Organ ([1]; EHDP 0.1 mg/kg): 0.20 % Dose
- Marrow, % Dose/1%-body weight ([1]; EHDP 0.1 mg/kg): 0.093 % Dose/1%-body weight
- Muscle, % Dose in Whole Organ ([1]; EHDP 0.1 mg/kg): 0.98 % Dose
- Tibia, % Dose/1%-body weight ([1]; EHDP 0.1 mg/kg): 9.63 % Dose/1%-body weight
- Blood, % Dose/1%-body weight ([1]; EHDP 0.5 mg/kg): 0.215 % Dose/1%-body weight
- Kidney, % Dose/1%-body weight ([1]; EHDP 0.5 mg/kg): 2.23 % Dose/1%-body weight
- Kidneys, % Dose in Whole Organ ([1]; EHDP 0.5 mg/kg): 1.10 % Dose
- Liver, % Dose in Whole Organ ([1]; EHDP 0.5 mg/kg): 0.260 % Dose
- Liver, % Dose/1%-body weight ([1]; EHDP 0.5 mg/kg): 0.086 % Dose/1%-body weight
- Marrow, % Dose in Whole Organ ([1]; EHDP 0.5 mg/kg): 0.19 % Dose
- Marrow, % Dose/1%-body weight ([1]; EHDP 0.5 mg/kg): 0.088 % Dose/1%-body weight
- Callus, % dose/1% body weight ([2]; 1 Hr.): 24.7 % dose/1% body weight
- Callus, % dose/1% body weight ([2]; 4 Hrs): 28.9 % dose/1% body weight
- skeletal concentrations compared with 85Sr ([3]; at various times): similar
- soft tissue and blood concentrations compared with 85Sr ([3]; at various times): much lower than those for 85Sr
- Blood, % dose/1% body weight ([3]; 1 Hr.): 1.23 % dose/1% body weight
- Bone(Avg), % dose/1% body weight ([3]; 1 Hr.): 4.66 % dose/1% body weight
- Femur, % dose/1% body weight ([3]; 1 Hr.): 3.85 % dose/1% body weight
- Kidneys, % Dose in Whole Organ ([3]; 1 Hr.): 2.40 % dose
- Kidneys, % dose/1% body weight ([3]; 1 Hr.): 3.93 % dose/1% body weight
- Liver, % Dose in Whole Organ ([3]; 1 Hr.): 0.80 % dose
- Liver, % dose/1% body weight ([3]; 1 Hr.): 0.30 % dose/1% body weight
- Marrow, % Dose in Whole Organ ([3]; 1 Hr.): 0.70 % dose
- Marrow, % dose/1% body weight ([3]; 1 Hr.): 0.36 % dose/1% body weight
- Muscle, % dose/1% body weight ([3]; 1 Hr.): 0.15 % dose/1% body weight
- One femur, % dose in whole organ ([3]; 1 Hr.): 0.82 % dose
- Pelvis, % dose/1% body weight ([3]; 1 Hr.): 7.15 % dose/1% body weight
- Spine, % dose/1% body weight ([3]; 1 Hr.): 5.87 % dose/1% body weight
- Tibia, % dose/1% body weight ([3]; 1 Hr.): 2.17 % dose/1% body weight
- Blood, % dose/1% body weight ([3]; 2 Hrs): 0.37 % dose/1% body weight
- Bone(Avg), % dose/1% body weight ([3]; 2 Hrs): 4.82 % dose/1% body weight
- Femur, % dose/1% body weight ([3]; 2 Hrs): 3.94 % dose/1% body weight
- Kidneys, % dose/1% body weight ([3]; 2 Hrs): 2.72 % dose/1% body weight
- Liver, % Dose in Whole Organ ([3]; 2 Hrs): 0.42 % dose
- Liver, % dose/1% body weight ([3]; 2 Hrs): 0.18 % dose/1% body weight
- Marrow, % Dose in Whole Organ ([3]; 2 Hrs): 0.38 % dose
- Marrow, % dose/1% body weight ([3]; 2 Hrs): 0.17 % dose/1% body weight
- Muscle, % dose/1% body weight ([3]; 2 Hrs): 0.04 % dose/1% body weight
- One femur, % dose in whole organ ([3]; 2 Hrs): 0.84 % dose
- Pelvis, % dose/1% body weight ([3]; 2 Hrs): 7.40 % dose/1% body weight
- Spine, % dose/1% body weight ([3]; 2 Hrs): 5.44 % dose/1% body weight
- Tibia, % dose/1% body weight ([3]; 2 Hrs): 2.49 % dose/1% body weight
- Blood, % Dose in Whole Organ ([3]; 4 Hrs): 0.89 % dose
- Bone(Avg), % dose/1% body weight ([3]; 4 Hrs): 4.74 % dose/1% body weight
- Femur, % dose/1% body weight ([3]; 4 Hrs): 3.86 % dose/1% body weight
- Kidneys, % Dose in Whole Organ ([3]; 4 Hrs): 0.94 % dose
- Kidneys, % dose/1% body weight ([3]; 4 Hrs): 1.95 % dose/1% body weight
- Liver, % Dose in Whole Organ ([3]; 4 Hrs): 0.28 % dose
- Marrow, % Dose in Whole Organ ([3]; 4 Hrs): 0.83 % dose
- Marrow, % dose/1% body weight ([3]; 4 Hrs): 0.38 % dose/1% body weight
- One femur, % dose in whole organ ([3]; 4 Hrs): 0.81 % dose
- Pelvis, % dose/1% body weight ([3]; 4 Hrs): 7.41 % dose/1% body weight
- Spine, % dose/1% body weight ([3]; 4 Hrs): 5.52 % dose/1% body weight
- Tibia, % dose/1% body weight ([3]; 4 Hrs): 2.16 % dose/1% body weight
- Blood, % Dose in Whole Organ ([3]; 24 Hrs): 0.49 % dose
- Blood, % dose/1% body weight ([3]; 24 Hrs): 0.07 % dose/1% body weight
- Bone(Avg), % dose/1% body weight ([3]; 24 Hrs): 4.14 % dose/1% body weight
- Femur, % dose/1% body weight ([3]; 24 Hrs): 3.42 % dose/1% body weight
- Kidneys, % Dose in Whole Organ ([3]; 24 Hrs): 0.63 % dose
- Kidneys, % dose/1% body weight ([3]; 24 Hrs): 1.29 % dose/1% body weight
- Liver, % Dose in Whole Organ ([3]; 24 Hrs): 0.43 % dose
- Liver, % dose/1% body weight ([3]; 24 Hrs): 0.28 % dose/1% body weight
- Marrow, % Dose in Whole Organ ([3]; 24 Hrs): 0.42 % dose
- Marrow, % dose/1% body weight ([3]; 24 Hrs): 0.19 % dose/1% body weight
- One femur, % dose in whole organ ([3]; 24 Hrs): 0.76 % dose
- Pelvis, % dose/1% body weight ([3]; 24 Hrs): 5.70 % dose/1% body weight
- Spine, % dose/1% body weight ([3]; 24 Hrs): 5.30 % dose/1% body weight
- Tibia, % dose/1% body weight ([3]; 24 Hrs): 2.10 % dose/1% body weight
